From patent US20190192521A1, “Methods of Treating Arid1A-Mutated Cancers With HDAC6 Inhibitors and EZH2 Inhibitors” (The Wistar Institute of Anatomy and Biology, priority 2016, published 2019)
Where no end group is shown, it is not given here.

Legend:
[1] = test system: ARID1A-mutated TOV21G and OVISE cells; assay: apoptosis (Annexin V, cleaved caspase 3, cleaved PARP p85) in ARID1A-mutated cells; type: cell-based, human
Experimental: FIG. 10 illustrates the finding that HDAC6 inhibition induces apoptosis in ARID1A-inactivated cells. […] Cells were collected and stained for apoptotic markers Annexin V. Apoptotic cells were quantified. Error bars represent standard error of the mean. The p-value was calculated via a two-tailed t-test.
FIG. 11 illustrates the results of the experiments of FIG. 10, but examined for apoptotic markers cleaved caspase 3 and cleaved PARP p85 by immunoblot. GAPDH expression was used as a loading control.
Cells were collected, incubated with an Annexin V-FITC antibody and subjected to flow cytometry analysis. Annexin V-positive cells (apoptotic) were measured with FloJo software. Mean of three independent experiments with S.E.M.
FIG. 78 illustrates percent apoptosis based on Annexin V staining in ARID1A mutated TOV21G cells treated with 1.25 μM ACY1215, 20 μM pan-caspase inhibitor Q-VD-Oph, or a combination for 48 hrs.
FIG. 79 illustrates percent apoptosis based on Annexin V staining in ARID1A mutated TOV21G cells treated with 1.25 μM ACY1215 for 48 hrs with or without knockdown of caspase 3 or caspase 9.
For immunoblotting, protein was isolated as described in Bitler et al. Nat. Med. 2015, 21, 231-238. Briefly, protein was extracted with RIPA buffer (150 mM NaCl, 1% NP40, 0.5% sodium deoxycholate, 0.1% SDS, 50 mM Tris pH 8.0, and 1 mM PMSF). Protein was separated on a SDS-PAGE and transferred to PVDF membrane. For immunoblot of p53 post-translation modifications, cells were treated with a proteasome inhibitor MG132 (10 μM) to stabilize p53 protein.
Annexin V and mitochondria membrane potentials were measured as follows. Phosphatidylserine externalization was detected using an Annexin V staining kit (Life Technologies) following the manufacturer's instructions. To measure change in mitochondria membrane potential cells were treated with 200 nM of tetramethylrhodamine, ethyl ester (TMRE; Abcam) for 15 min at 37° C. Annexin V and TMRE-positive cells were detected using the LSR18 and analyzed with the FlowJo software module.

human HDAC6 = biological target: T1, human HDAC6 (Homo sapiens, UniProt Q9UBN7); assay: in vitro biochemical HDAC6 deacetylation assay (LC-MS)
T1 construct: made in house
T1 sequence (Q9UBN7 1-1215): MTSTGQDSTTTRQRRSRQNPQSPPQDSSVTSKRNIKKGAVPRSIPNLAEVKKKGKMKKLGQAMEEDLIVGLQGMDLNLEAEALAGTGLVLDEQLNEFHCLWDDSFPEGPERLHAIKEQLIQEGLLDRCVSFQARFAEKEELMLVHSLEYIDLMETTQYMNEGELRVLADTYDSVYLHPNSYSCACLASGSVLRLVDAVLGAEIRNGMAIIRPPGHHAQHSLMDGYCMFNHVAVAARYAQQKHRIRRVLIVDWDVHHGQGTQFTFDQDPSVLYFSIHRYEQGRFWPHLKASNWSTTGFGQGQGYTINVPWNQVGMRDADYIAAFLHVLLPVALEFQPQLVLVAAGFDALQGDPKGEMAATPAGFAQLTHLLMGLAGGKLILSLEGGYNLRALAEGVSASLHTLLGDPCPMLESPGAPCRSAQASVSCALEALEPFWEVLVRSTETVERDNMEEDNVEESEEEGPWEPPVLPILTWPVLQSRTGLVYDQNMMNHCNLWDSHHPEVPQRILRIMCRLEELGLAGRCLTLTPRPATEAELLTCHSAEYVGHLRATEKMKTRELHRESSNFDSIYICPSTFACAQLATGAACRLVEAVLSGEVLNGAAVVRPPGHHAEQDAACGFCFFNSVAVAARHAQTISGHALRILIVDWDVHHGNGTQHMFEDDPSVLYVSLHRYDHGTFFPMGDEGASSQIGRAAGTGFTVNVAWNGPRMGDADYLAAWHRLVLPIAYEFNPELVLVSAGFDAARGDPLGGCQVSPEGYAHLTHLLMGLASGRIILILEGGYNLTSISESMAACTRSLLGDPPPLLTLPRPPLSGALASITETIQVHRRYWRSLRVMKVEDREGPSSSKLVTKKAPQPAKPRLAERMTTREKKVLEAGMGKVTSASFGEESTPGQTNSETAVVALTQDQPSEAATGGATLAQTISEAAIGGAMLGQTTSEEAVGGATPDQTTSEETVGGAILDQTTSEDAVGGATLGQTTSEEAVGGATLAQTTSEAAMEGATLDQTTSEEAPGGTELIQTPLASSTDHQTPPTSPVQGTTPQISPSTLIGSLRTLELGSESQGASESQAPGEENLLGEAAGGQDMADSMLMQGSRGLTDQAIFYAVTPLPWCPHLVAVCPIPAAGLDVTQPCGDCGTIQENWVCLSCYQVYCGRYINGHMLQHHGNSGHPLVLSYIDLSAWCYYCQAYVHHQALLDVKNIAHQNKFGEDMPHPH
Experimental: Deacetylation reactions were detected by discontinuous liquid chromatography-mass spectrometry (LC-MS). […] All assays were performed in triplicates.
In vitro biochemical HDAC6 deacetylation assays were performed as follows. Activity assay with human HDAC6 was based on a discontinuous liquid chromatography-mass spectrometry (LC-MS) assay as reported in Hai and Christianson, 2016. Briefly, 0.05 μM of HDAC6 was incubated with 100 μM of substrate Ac-LHSGTAK(ac)SVT-COOH in HEPES buffer [20 mM HEPES (pH 7.5), 100 mM NaCl, 5 mM KCl, 1 mM MgCl2] for 20 min at room temperature, and the reaction was quenched by the addition of acetonitrile (equal volume to the reaction solution). […] The assay was run in the presence of 10 μM of HDAC6 specific inhibitor ACY-1215 as a negative control. All the assays were performed in triplicates. The peptide was custom synthesized by Genscript. The human HDAC6 construct was expressed and purified as described in Hai and Christianson, 2016.

[2] = test system: ovarian clear cell carcinoma cell lines with known ARID1A mutational status; assay: colony formation assay, panel of ovarian clear cell carcinoma cell lines with or without ARID1A mutation; type: cell-based, human; conditions: 12 days
Experimental: After 12 days culture, integrated density of colony formed by the indicated cells was quantified using NIH Image J software, and values were normalized to vehicle control. Data represent triplicates from independent experiments. Error bars represent S.E.M. The p-value was calculated via two-tailed t-test.
Indicated ovarian clear cell carcinoma cell lines with known ARID1A mutational status were treated with the indicated concentration of HDAC6 inhibitor CAY10603 or vehicle control in a colony formation assay. After 12 days culture, integrated density of colony formed by the indicated cells was quantified using NIH Image J software, and values were normalized to vehicle control. Data represent triplicates from independent experiments. Error bars represent S.E.M.
Colony formation assays were performed as follows. Cell lines were infected with lentivirus pLKO.1-shRNAs or pLKO.1-control with puromycin selection marker. Infected cells were selected with 1 μg/mL of puromycin for 72 hours and the selected cells were seeded in 12-well or 24-well plates. Cell medium was changed every three days with appropriate drug doses for 14 days or until control wells became confluent. Colonies were washed twice with PBS and fixed with 10% methanol and 10% acetic acid in distilled water. Fixed colonies were stained with 0.005% crystal violet. Integrated density was measured using NIH ImageJ software.

[3] = test system: p53 target genes (BAX, PUMA, NOXA, CDKN1A) in ARID1A-mutated TOV21G cells; assay: RNA-seq of p53 target genes; type: cell-based, human; conditions: 312 nM
Description: RNA was extracted and utilized for next generation sequencing (RNA-seq). Expression of p53 target genes known to regulate apoptosis such as BAX, PUMA and NOXA, and known to regulate cell cycle arrest such as CDKN1A were not altered by HDAC6 inhibition in RNA-seq analysis.

c1cc(SSc2ccns2)sn1 [NU9056]
effect on apoptosis induced by ACY1215 ([1]; TIP60 inhibitor with ACY1215): suppressed apoptosis | p53K120Ac levels ([1]; TIP60 inhibitor with ACY1215): reduction of the p53K120Ac levels

Ac-LHSGTAK(Ac)SVT
specific activity of HDAC6 with this substrate (human HDAC6): 3.4±0.4 nmol product·nmol enzyme^−1·min^−1

CC(C)(C)OC(=O)Nc1ccc(-c2cc(C(=O)NCCCCCCC(=O)NO)no2)cc1 [CAY10603, tert-butyl 4-(3-((7-(hydroxyamino)-7-oxoheptyl)carbamoy)isoxazol-5-yl)phenylcarbamate]
sensitivity of ARID1A-mutated cells compared with ARID1A wild-type cells [2]: more sensitive | expression of p53 target genes (BAX, PUMA, NOXA, CDKN1A) [3]: not altered

CC(C)[C@H](NC(=O)c1ccc2ccccc2n1)C(=O)N[C@@H](CC(=O)O)C(=O)COc1c(F)cccc1F [Q-VD-Oph]
effect on apoptosis induced by ACY1215 ([1]; TOV21G, 20 μM Q-VD-Oph with 1.25 μM ACY1215, 48 hrs): significantly suppressed the apoptosis

Ala-Lys(Ac)-Ala-NH2
specific activity of HDAC6 with this substrate (human HDAC6): 10.5±0.5 nmol product·nmol enzyme^−1·min^−1
